These results are taken from PubChem BioAssay AID180 (DTP/NCI, 2004).

This test deals with BDF1 mice, Adenocarcinoma 755 s.c., tumor weight T/C. Kind of test: NCI In Vivo Anticancer Drug Screen. Data for tumor model Adenocarcinoma 755 (subcutaneous) in B6D2F1 (BDF1) mice. As to conditions: endpoint: mean tumor weight, higher = larger tumour. The gist of the method: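 Tumor-bearing mice receive test compound while controls get vehicle alone. Antitumor effect is scored from survival or tumor dimensions as a T/C quotient.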

Where [1] appears, read: dose: 10.0 mg/kg/injection, schedule: Q01DX011 (ip), vehicle: methylcellulose (MC).
The mark [2] stands for this setting: dose: 15.0 mg/kg/injection, schedule: Q01DX011 (ip), vehicle: carboxymethylcellulose (CMC).
Where [3] appears, read: dose: 20.0 mg/kg/injection, schedule: Q01DX011 (ip), vehicle: methylcellulose (MC).

Several values for one entry are separate records, joined by “and”; a condition that tells them apart may be missing. Identical values can stand only once.

For the compound `Clc1ncnc2nc[nH]c12`, the T/C runs as follows: (dose: 1.87 mg/kg/injection, schedule: Q01DX006 (iv), vehicle: carboxymethylcellulose (CMC)) 96 % of control; (dose: 1.87 mg/kg/injection, schedule: Q01DX011 (im), vehicle: carboxymethylcellulose (CMC)) 47 % of control; (dose: 1.87 mg/kg/injection, schedule: Q01DX011 (ip), vehicle: carboxymethylcellulose (CMC)) 83 % of control; (dose: 1.87 mg/kg/injection, schedule: Q01DX011 (sc), vehicle: carboxymethylcellulose (CMC)) 103 % of control; (dose: 2.5 mg/kg/injection, schedule: Q01DX011 (ip), vehicle: carboxymethylcellulose (CMC)) 66 % of control; (dose: 3.12 mg/kg/injection, schedule: Q01DX011 (oral), vehicle: carboxymethylcellulose (CMC)) 110 % of control. For the same compound, the T/C (dose: 3.12 mg/kg/injection, schedule: Q#A X022 (ip), vehicle: carboxymethylcellulose (CMC)) was 48 % of control; the T/C (dose: 3.75 mg/kg/injection, schedule: Q01DX006 (iv), vehicle: carboxymethylcellulose (CMC)) is 94 % of control; the T/C (dose: 3.75 mg/kg/injection, schedule: Q01DX011 (im), vehicle: carboxymethylcellulose (CMC)) was 83 % of control; the T/C (dose: 3.75 mg/kg/injection, schedule: Q01DX011 (ip), vehicle: carboxymethylcellulose (CMC)) is 62 % of control; the T/C (dose: 3.75 mg/kg/injection, schedule: Q01DX011 (sc), vehicle: carboxymethylcellulose (CMC)) is 76 % of control; the T/C (dose: 5.0 mg/kg/injection, schedule: Q01DX011 (ip), vehicle: carboxymethylcellulose (CMC)) is 36 % of control and 58 % of control. Further, the T/C (dose: 5.0 mg/kg/injection, schedule: Q03DX004 (ip), vehicle: carboxymethylcellulose (CMC)) was 81 % of control; the T/C (dose: 6.25 mg/kg/injection, schedule: Q01DX011 (oral), vehicle: carboxymethylcellulose (CMC)) is 55 % of control; the T/C (dose: 6.25 mg/kg/injection, schedule: Q#A X022 (ip), vehicle: carboxymethylcellulose (CMC)) was 41 % of control; the T/C (dose: 7.5 mg/kg/injection, schedule: Q01DX006 (iv), vehicle: carboxymethylcellulose (CMC)) is 82 % of control; the T/C (dose: 7.5 mg/kg/injection, schedule: Q01DX011 (im), vehicle: carboxymethylcellulose (CMC)) was 22 % of control; the T/C (dose: 7.5 mg/kg/injection, schedule: Q01DX011 (ip), vehicle: carboxymethylcellulose (CMC)) was 34 % of control. For the same compound, the T/C is 28 % of control (dose: 7.5 mg/kg/injection, schedule: Q01DX011 (sc), vehicle: carboxymethylcellulose (CMC)); 27 % of control (dose: 10.0 mg/kg/injection, schedule: Q01DX011 (ip), vehicle: carboxymethylcellulose (CMC)); 44 % of control under setting [1]; 66 % of control (dose: 10.0 mg/kg/injection, schedule: Q03DX004 (ip), vehicle: carboxymethylcellulose (CMC)); 11 % of control (dose: 12.5 mg/kg/injection, schedule: Q01DX011 (oral), vehicle: carboxymethylcellulose (CMC)); 8 % of control (dose: 12.5 mg/kg/injection, schedule: Q#A X022 (ip), vehicle: carboxymethylcellulose (CMC)). Besides, the T/C (dose: 15.0 mg/kg/injection, schedule: Q01DX006 (iv), vehicle: carboxymethylcellulose (CMC)) is 25 % of control; the T/C under setting [2] is 13 % of control; the T/C (dose: 15.0 mg/kg/injection, schedule: Q01DX011 (sc), vehicle: carboxymethylcellulose (CMC)) is 7 % of control; the T/C (dose: 15.0 mg/kg/injection, schedule: Q03DX004 (ip), vehicle: carboxymethylcellulose (CMC)) was 55 % of control; the T/C (dose: 18.75 mg/kg/injection, schedule: Q07DX002 (ip), vehicle: carboxymethylcellulose (CMC)) was 46 % of control; the T/C (dose: 25.0 mg/kg/injection, schedule: Q01DX011 (oral), vehicle: carboxymethylcellulose (CMC)) is 2 % of control. Besides, the T/C is, setting by setting: (dose: 25.0 mg/kg/injection, schedule: Q03DX004 (ip), vehicle: carboxymethylcellulose (CMC)) 35 % of control; (dose: 37.5 mg/kg/injection, schedule: Q01DX001 (ip), vehicle: carboxymethylcellulose (CMC)) 49 % of control and 66 % of control; (dose: 37.5 mg/kg/injection, schedule: Q07DX002 (ip), vehicle: carboxymethylcellulose (CMC)) 16 % of control; (dose: 50.0 mg/kg/injection, schedule: Q01DX011 (ip), vehicle: carboxymethylcellulose (CMC)) 3 % of control; (dose: 50.0 mg/kg/injection, schedule: Q01DX011 (ip), vehicle: methylcellulose (MC)) 5 % of control; (dose: 50.0 mg/kg/injection, schedule: Q01DX011 (sc), vehicle: carboxymethylcellulose (CMC)) 1 % of control. Besides, the T/C reads like this: (dose: 50.0 mg/kg/injection, schedule: Q03DX004 (ip), vehicle: carboxymethylcellulose (CMC)) 5 % of control; (dose: 75.0 mg/kg/injection, schedule: Q01DX001 (ip), vehicle: carboxymethylcellulose (CMC)) 18 % of control and 42 % of control; (dose: 75.0 mg/kg/injection, schedule: Q03DX004 (ip), vehicle: carboxymethylcellulose (CMC)) 1 % of control; (dose: 75.0 mg/kg/injection, schedule: Q07DX002 (ip), vehicle: carboxymethylcellulose (CMC)) 1 % of control; (dose: 100.0 mg/kg/injection, schedule: Q01DX011 (ip), vehicle: carboxymethylcellulose (CMC)) 1 % of control and 4 % of control; (dose: 100.0 mg/kg/injection, schedule: Q01DX011 (ip), vehicle: methylcellulose (MC)) 6 % of control. In addition, the T/C was 24 % of control and 29 % of control (dose: 150.0 mg/kg/injection, schedule: Q01DX001 (ip), vehicle: carboxymethylcellulose (CMC)); 1 % of control (dose: 150.0 mg/kg/injection, schedule: Q07DX002 (ip), vehicle: carboxymethylcellulose (CMC)); 8 % of control and 17 % of control (dose: 175.0 mg/kg/injection, schedule: Q01DX001 (ip), vehicle: carboxymethylcellulose (CMC)); 4 % of control (dose: 175.0 mg/kg/injection, schedule: Q07DX002 (ip), vehicle: carboxymethylcellulose (CMC)); 4 % of control (dose: 300.0 mg/kg/injection, schedule: Q01DX011 (ip), vehicle: methylcellulose (MC)); 5 % of control and 8 % of control (dose: 350.0 mg/kg/injection, schedule: Q01DX001 (ip), vehicle: carboxymethylcellulose (CMC)).

As to `O=C(Nc1ccc([N+](=O)[O-])cc1)Nc1ccc([N+](=O)[O-])cc1` (tested in a mixture with another compound), the T/C was 57 % of control and 72 % of control (dose: 175.0 mg/kg/injection, schedule: Q01DX011 (ip), vehicle: methylcellulose (MC)); 27 % of control and 45 % of control (dose: 500.0 mg/kg/injection, schedule: Q01DX011 (ip), vehicle: methylcellulose (MC)).

On to `Fc1cccc(CSc2ncnc3c2ncn3C2CCCCO2)c1` (configuration not stated), for which the T/C runs as follows: under setting [3], 13 % of control; (dose: 65.0 mg/kg/injection, schedule: Q01DX011 (ip), vehicle: methylcellulose (MC)) 1 % of control.

Take `Nc1nc2nc(/N=N/SCCC(=O)O)[nH]c2c(=O)[nH]1`: the T/C by setting is: (dose: 37.5 mg/kg/injection, schedule: Q01DX011 (ip), vehicle: methylcellulose (MC)) 54 % of control; (dose: 75.0 mg/kg/injection, schedule: Q01DX011 (ip), vehicle: methylcellulose (MC)) 45 % of control.

For `CN(N=O)C(N)=O`, the T/C by setting is: (dose: 2.5 mg/kg/injection, schedule: Q01DX011 (ip), vehicle: methylcellulose (MC)) 109 % of control; (dose: 2.81 mg/kg/injection, schedule: Q01DX011 (ip), vehicle: carboxymethylcellulose (CMC)) 78 % of control; (dose: 3.16 mg/kg/injection, schedule: Q01DX011 (ip), vehicle: carboxymethylcellulose (CMC)) 78 % of control; (dose: 5.0 mg/kg/injection, schedule: Q01DX011 (ip), vehicle: methylcellulose (MC)) 97 % of control; (dose: 5.62 mg/kg/injection, schedule: Q01DX011 (ip), vehicle: carboxymethylcellulose (CMC)) 120 % of control; (dose: 6.32 mg/kg/injection, schedule: Q01DX011 (ip), vehicle: carboxymethylcellulose (CMC)) 76 % of control. Moreover, the T/C by setting is: (dose: 6.33 mg/kg/injection, schedule: Q01DX011 (ip), vehicle: carboxymethylcellulose (CMC)) 79 % of control; (dose: 7.2 mg/kg/injection, schedule: Q01DX011 (ip), vehicle: carboxymethylcellulose (CMC)) 108 % of control; (dose: 9.0 mg/kg/injection, schedule: Q01DX011 (ip), vehicle: carboxymethylcellulose (CMC)) 77 % of control; under setting [1], 87 % of control; (dose: 10.12 mg/kg/injection, schedule: Q01DX011 (ip), vehicle: carboxymethylcellulose (CMC)) 109 % of control and 119 % of control; (dose: 12.0 mg/kg/injection, schedule: Q01DX011 (ip), vehicle: carboxymethylcellulose (CMC)) 79 % of control. Also, the T/C is 93 % of control (dose: 13.0 mg/kg/injection, schedule: Q01DX011 (ip), vehicle: carboxymethylcellulose (CMC)); 97 % of control and 85 % of control under setting [2]; 13 % of control (dose: 18.0 mg/kg/injection, schedule: Q01DX011 (ip), vehicle: carboxymethylcellulose (CMC)); 27 % of control under setting [3]; 21 % of control and 42 % of control (dose: 22.5 mg/kg/injection, schedule: Q01DX011 (ip), vehicle: carboxymethylcellulose (CMC)); 24 % of control (dose: 25.0 mg/kg/injection, schedule: Q01DX011 (ip), vehicle: carboxymethylcellulose (CMC)).
